Patent US11739077B2, “Small molecule inhibitors of ubiquitin specific protease 1 (USP1) and uses thereof” (Insilico Medicine IP Limited, priority 2021, dated 2023)

Tests used:
[1] = biological target: Human recombinant USP1/UAF1 (Homo sapiens (Human), UniProt O94782); experiment: Enzymatic assay, USP1/UAF1 with Ubiquitin Rhodamine 110; assay type: biochemical; settings: 2 nM USP1/UAF1, 500 nM Ubiquitin Rhodamine 110, 15 minutes preincubation at RT
Description: Human recombinant USP1/UAF1 expressed in baculovirus infected Sf21 cells were used (R&D, E-568-050). Test compound and/or vehicle was incubated with 2 nM of USP1/UAF1 in modified HEPES buffer pH 8.0 for 15 minutes at RT. The reaction was initiated by addition of 500 nM of Ubiquitin Rhodamine 110 (R&D, U-555-050) for kinetic reading. Slope change of fluorescence intensity was read spectrofluorimetrically at 485 nm/535 nm.

MDA-MB-436 cells = experiment: MDA-MB-436 breast cancer cell proliferation assay (CellTiter-Glo); assay type: cell-based; settings: 7 days
Description: MDA-MB-436 cells were grown in Leibovitz's L-15 medium with 10 ug/ml insulin, 16 ug/ml glutathione, 10% FBS. Cells were passaged at subconfluence after trypsinization and maintained in incubators at 37° C. in a humidified atmosphere with 5% CO2.
Cell proliferation was determined using CellTiter-Glo® Luminescent Cell Viability Assay (Promega, #G7573). MDA-MB-436 cells were seeded in 384-well plates and allowed to attach for 24 h. Compounds were added into 384-well plate by ECHO, and incubated at 37° C. in a humidified atmosphere with 5% CO2. After 7 days, CellTiter-Glo was added into 384 well plates, contents were mixed on an orbital shaker at […] for 2 min before centrifuging the plate for 2 min at 1000 rpm. After incubation at RT for 30 min, luminescence was read on envision.

Sequence of Human recombinant USP1/UAF1 (O94782 whole entry): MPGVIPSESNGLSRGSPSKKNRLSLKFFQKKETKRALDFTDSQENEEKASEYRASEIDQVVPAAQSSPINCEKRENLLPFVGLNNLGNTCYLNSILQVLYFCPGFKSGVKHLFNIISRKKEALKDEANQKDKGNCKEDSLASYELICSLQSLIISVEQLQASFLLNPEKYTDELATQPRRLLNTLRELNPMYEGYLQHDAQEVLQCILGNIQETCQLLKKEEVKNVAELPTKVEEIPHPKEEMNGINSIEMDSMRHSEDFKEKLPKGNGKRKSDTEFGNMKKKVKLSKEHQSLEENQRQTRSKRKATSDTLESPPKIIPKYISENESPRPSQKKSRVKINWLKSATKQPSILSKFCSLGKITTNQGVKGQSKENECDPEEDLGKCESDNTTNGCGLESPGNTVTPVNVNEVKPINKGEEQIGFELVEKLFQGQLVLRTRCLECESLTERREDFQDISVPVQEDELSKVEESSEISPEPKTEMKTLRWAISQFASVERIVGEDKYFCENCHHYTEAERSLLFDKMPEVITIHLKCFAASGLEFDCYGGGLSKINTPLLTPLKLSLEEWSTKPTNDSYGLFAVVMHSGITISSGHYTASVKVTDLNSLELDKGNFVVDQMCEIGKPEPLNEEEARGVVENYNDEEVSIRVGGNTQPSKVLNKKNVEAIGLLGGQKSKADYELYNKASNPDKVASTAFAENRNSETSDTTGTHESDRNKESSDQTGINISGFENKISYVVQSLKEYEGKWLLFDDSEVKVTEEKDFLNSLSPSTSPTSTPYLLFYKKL
Sequence of Human recombinant USP1/UAF1 (Q8TAF3 whole entry partner): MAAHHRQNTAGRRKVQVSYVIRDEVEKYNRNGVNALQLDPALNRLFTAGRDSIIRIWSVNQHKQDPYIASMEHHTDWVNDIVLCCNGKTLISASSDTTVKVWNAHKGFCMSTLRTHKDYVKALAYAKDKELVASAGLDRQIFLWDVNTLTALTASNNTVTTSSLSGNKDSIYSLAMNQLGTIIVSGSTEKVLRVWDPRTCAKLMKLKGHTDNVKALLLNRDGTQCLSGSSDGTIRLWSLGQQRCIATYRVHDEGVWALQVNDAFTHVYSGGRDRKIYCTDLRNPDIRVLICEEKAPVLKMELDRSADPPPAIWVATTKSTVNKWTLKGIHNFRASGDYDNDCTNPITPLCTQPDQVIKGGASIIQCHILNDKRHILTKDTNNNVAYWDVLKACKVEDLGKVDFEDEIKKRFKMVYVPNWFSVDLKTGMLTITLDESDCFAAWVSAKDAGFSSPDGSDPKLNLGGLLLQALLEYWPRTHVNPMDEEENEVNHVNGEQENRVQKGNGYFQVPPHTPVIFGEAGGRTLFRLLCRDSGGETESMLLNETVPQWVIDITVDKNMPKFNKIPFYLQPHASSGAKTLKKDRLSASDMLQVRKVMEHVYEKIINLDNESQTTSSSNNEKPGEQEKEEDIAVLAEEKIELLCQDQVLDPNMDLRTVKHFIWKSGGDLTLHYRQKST

SMILES | IC50 [1] [nM] | IC50 (MDA-MB-436 cells; Homo sapiens, 168 h) [nM] | IC50 (MDA-MB-436 cells) [nM]
CC(C)c1ncccc1-c1nn(C)c2c1CN(c1ccc(-c3nc(C(F)(F)F)cn3C)cc1)CC2 [Example 1, 3-(2-isopropylpyridin-3-yl)-1-methyl-5-(4-(1-methyl-4-(trifluoromethyl)-1H-imidazol-2-yl)phenyl)-4,5,6,7-tetrahydro-1H-pyrazolo[4,3-c]pyridine] | < 50 | < 50 | –
CC(C)c1ncncc1-c1nn(C)c2c1CN(c1ccc(-c3nc(C(F)(F)F)cn3C)cc1)CC2 [Example 2, 3-(4-isopropylpyrimidin-5-yl)-1-methyl-5-(4-(1-methyl-4-(trifluoromethyl)-1H-imidazol-2-yl)phenyl)-4,5,6,7-tetrahydro-1H-pyrazolo[4,3-c]pyridine] | 50 to 1000 | 50 to 1000 | –
COc1ncnc(C2CC2)c1-c1nn(C)c2c1CN(c1ccc(-c3nc(C(F)(F)F)cn3C)cc1)CC2 [Example 3, 3-(4-cyclopropyl-6-methoxypyrimidin-5-yl)-1-methyl-5-(4-(1-methyl-4-(trifluoromethyl)-1H-imidazol-2-yl)phenyl)-4,5,6,7-tetrahydro-1H-pyrazolo[4,3-c]pyridine] | < 50 | < 50 | –
[2H]C([2H])([2H])n1nc(-c2c(OC)ncnc2C2CC2)c2c1CCN(c1ccc(-c3nc(C(F)(F)F)cn3C(C)C)cc1)C2 [Example 4, 3-(4-cyclopropyl-6-methoxypyrimidin-5-yl)-5-(4-(1-isopropyl-4-(trifluoromethyl)-1H-imidazol-2-yl)phenyl)-1-(methyl-d3)-4,5,6,7-tetrahydro-1H-pyrazolo[4,3-c]pyridine] | < 50 | < 50 | –
COc1ncnc(C2CC2)c1-c1nn(C)c2c1CN(c1ccc(-c3nc(C(F)(F)F)cn3C)cn1)CC2 [Example 5, 3-(4-cyclopropyl-6-methoxypyrimidin-5-yl)-1-methyl-5-(5-(1-methyl-4-(trifluoromethyl)-1H-imidazol-2-yl)pyridin-2-yl)-4,5,6,7-tetrahydro-1H-pyrazolo[4,3-c]pyridine] | < 50 | < 50 | –
COc1ncnc(C2CC2)c1-c1nn(C)c2c1CN(c1ccc(-c3nc(C(F)(F)F)cn3C)nc1)CC2 [Example 6, 3-(4-cyclopropyl-6-methoxypyrimidin-5-yl)-1-methyl-5-(6-(1-methyl-4-(trifluoromethyl)-1H-imidazol-2-yl)pyridin-3-yl)-4,5,6,7-tetrahydro-1H-pyrazolo[4,3-c]pyridine] | < 50 | < 50 | –
COc1ncnc(C2CC2)c1-c1nn(C)c2c1CN(c1ccc(-c3nc(C(F)(F)F)cn3C)cc1F)CC2 [Example 7, 3-(4-cyclopropyl-6-methoxypyrimidin-5-yl)-5-(2-fluoro-4-(1-methyl-4-(trifluoromethyl)-1H-imidazol-2-yl)phenyl)-1-methyl-4,5,6,7-tetrahydro-1H-pyrazolo[4,3-c]pyridine] | < 50 | < 50 | –
COc1ncnc(C2CC2)c1-c1nn(C)c2c1CN(c1ccc(-c3nc(C(F)(F)F)cn3C)c(F)c1)CC2 [Example 8, 3-(4-cyclopropyl-6-methoxypyrimidin-5-yl)-5-(3-fluoro-4-(1-methyl-4-(trifluoromethyl)-1H-imidazol-2-yl)phenyl)-1-methyl-4,5,6,7-tetrahydro-1H-pyrazolo[4,3-c]pyridine] | < 50 | < 50 | –
COc1ncnc(C2CC2)c1-c1nn(C(F)F)c2c1CN(c1ccc(-c3nc(C(F)(F)F)cn3C)cc1)CC2 [Example 9, 3-(4-cyclopropyl-6-methoxypyrimidin-5-yl)-1-(difluoromethyl)-5-(4-(1-methyl-4-(trifluoromethyl)-1H-imidazol-2-yl)phenyl)-4,5,6,7-tetrahydro-1H-pyrazolo[4,3-c]pyridine] | < 50 | < 50 | –
COc1ncnc(C2CC2)c1-c1nn(C)c2c1CN(c1ccc(-c3nc(C(F)(F)F)cn3C(C)C)cn1)CC2 [Example 10, 3-(4-cyclopropyl-6-methoxypyrimidin-5-yl)-5-(5-(1-isopropyl-4-(trifluoromethyl)-1H-imidazol-2-yl)pyridin-2-yl)-1-methyl-4,5,6,7-tetrahydro-1H-pyrazolo[4,3-c]pyridine] | < 50 | < 50 | –
[2H]C([2H])([2H])n1nc(-c2c(OC)ncnc2C2CC2)c2c1CCN(c1ccc(-c3nc(C(F)(F)F)cn3C(C)C)cn1)C2 [Example 11, 3-(4-cyclopropyl-6-methoxypyrimidin-5-yl)-5-(5-(1-isopropyl-4-(trifluoromethyl)-1H-imidazol-2-yl)pyridin-2-yl)-1-(methyl-d3)-4,5,6,7-tetrahydro-1H-pyrazolo[4,3-c]pyridine] | < 50 | < 50 | –
Cc1ncnc(C2CC2)c1-c1nn(C)c2c1CN(c1ccc(-c3nc(C(F)(F)F)cn3C)cn1)CC2 [Example 13, 3-(4-cyclopropyl-6-methylpyrimidin-5-yl)-1-methyl-5-(5-(1-methyl-4-(trifluoromethyl)-1H-imidazol-2-yl)pyridin-2-yl)-4,5,6,7-tetrahydro-1H-pyrazolo[4,3-c]pyridine] | 50 to 1000 | 50 to 1000 | –
COc1ncnc(C2CC2)c1-c1nn(C)c2c1CN(c1ccc(-n3nc(C(F)(F)F)cc3C)cn1)CC2 [Example 15, 3-(4-cyclopropyl-6-methoxypyrimidin-5-yl)-1-methyl-5-(5-(5-methyl-3-(trifluoromethyl)-1H-pyrazol-1-yl)pyridin-2-yl)-4,5,6,7-tetrahydro-1H-pyrazolo[4,3-c]pyridine] | < 50 | – | 50 to 1000
CCn1nc(-c2c(OC)ncnc2C2CC2)c2c1CCN(c1ccc(-c3nc(C(F)(F)F)cn3C)cn1)C2 [Example 16, 3-(4-cyclopropyl-6-methoxypyrimidin-5-yl)-1-ethyl-5-(5-(1-methyl-4-(trifluoromethyl)-1H-imidazol-2-yl)pyridin-2-yl)-4,5,6,7-tetrahydro-1H-pyrazolo[4,3-c]pyridine] | 50 to 1000 | 50 to 1000 | –
[2H]C([2H])([2H])n1nc(-c2c(OC)ncnc2C2CC2)c2c1CCN(c1ccc(-c3nc(C(F)(F)F)cn3C)cc1)C2 [Example 17, 3-(4-cyclopropyl-6-methoxypyrimidin-5-yl)-1-(methyl-d3)-5-(4-(1-methyl-4-(trifluoromethyl)-1H-imidazol-2-yl)phenyl)-4,5,6,7-tetrahydro-1H-pyrazolo[4,3-c]pyridine] | < 50 | < 50 | –
[2H]C([2H])([2H])n1nc(-c2c(OC)ncnc2C2CC2)c2c1CCN(c1ccc(-c3nc(C(F)(F)F)cn3C)cn1)C2 [Example 18, 3-(4-cyclopropyl-6-methoxypyrimidin-5-yl)-1-(methyl-d3)-5-(5-(1-methyl-4-(trifluoromethyl)-1H-imidazol-2-yl)pyridin-2-yl)-4,5,6,7-tetrahydro-1H-pyrazolo[4,3-c]pyridine] | < 50 | < 50 | –
COc1ncnc(C2CC2)c1-c1n[nH]c2c1CN(c1ccc(-c3nc(C(F)(F)F)cn3C(C)C)cn1)CC2 [Example 20, 3-(4-cyclopropyl-6-methoxypyrimidin-5-yl)-5-(5-(1-isopropyl-4-(trifluoromethyl)-1H-imidazol-2-yl)pyridin-2-yl)-4,5,6,7-tetrahydro-1H-pyrazolo[4,3-c]pyridine] | 50 to 1000 | 50 to 1000 | –
Cn1cc(C(F)(F)F)nc1-c1ccc(N2CCc3c(c(-c4cccnc4OC(F)F)nn3C)C2)cc1 [Example 24, 3-(2-(difluoromethoxy)pyridin-3-yl)-1-methyl-5-(4-(1-methyl-4-(trifluoromethyl)-1H-imidazol-2-yl)phenyl)-4,5,6,7-tetrahydro-1H-pyrazolo[4,3-c]pyridine] | < 50 | 50 to 1000 | –
CCn1cc(C(F)(F)F)nc1-c1ccc(N2CCc3c(c(-c4c(OC)ncnc4C4CC4)nn3C)C2)nc1 [Example 25, 3-(4-cyclopropyl-6-methoxypyrimidin-5-yl)-5-(5-(1-ethyl-4-(trifluoromethyl)-1H-imidazol-2-yl)pyridin-2-yl)-1-methyl-4,5,6,7-tetrahydro-1H-pyrazolo[4,3-c]pyridine] | < 50 | < 50 | –
COc1ncnc(C2CC2)c1-c1nn(C)c2c1CN(c1cnc(-c3nc(C(F)(F)F)cn3C)nc1)CC2 [Example 26, 3-(4-cyclopropyl-6-methoxypyrimidin-5-yl)-1-methyl-5-(2-(1-methyl-4-(trifluoromethyl)-1H-imidazol-2-yl)pyrimidin-5-yl)-4,5,6,7-tetrahydro-1H-pyrazolo[4,3-c]pyridine] | 50 to 1000 | 50 to 1000 | –
COc1ncnc(C2CC2)c1-c1nn(C)c2c1CN(c1ncc(-c3nc(C(F)(F)F)cn3C)cn1)CC2 [Example 27, 3-(4-cyclopropyl-6-methoxypyrimidin-5-yl)-1-methyl-5-(5-(1-methyl-4-(trifluoromethyl)-1H-imidazol-2-yl)pyrimidin-2-yl)-4,5,6,7-tetrahydro-1H-pyrazolo[4,3-c]pyridine] | < 50 | < 50 | –
COc1ncnc(C2CC2)c1-c1nn(C)c2c1CN(c1cnc(-c3nc(C(F)(F)F)cn3C)cn1)CC2 [Example 28, 3-(4-cyclopropyl-6-methoxypyrimidin-5-yl)-1-methyl-5-(5-(1-methyl-4-(trifluoromethyl)-1H-imidazol-2-yl)pyrazin-2-yl)-4,5,6,7-tetrahydro-1H-pyrazolo[4,3-c]pyridine] | < 50 | < 50 | –
